For this assay, the target named is T1, Tsr (Escherichia coli, UniProt P02942).
T1 construct: mixed adaptational modification states, CheR and CheB present; read-out by plasmid-borne CheY-YFP/CheZ-CFP
Kind of assay: in vivo FRET kinase assay (CheY-YFP/CheZ-CFP), inhibition of receptor-coupled CheA activity, multi-site Hill fit. The class given is cell-based. The conditions noted are these: intact WM4196 minicells, motility buffer pH 7.0, adaptation enzymes CheR and CheB present; attractant at the periplasmic domain; read-out: K1/2.

Drawing on article PMC7005262, “Complete structure of the chemosensory array core signalling unit in an E. coli minicell strain” (Nature Communications, 2020), this text covers EC50 for one molecule.

SMILES strings stand for the structures.

T1 sequence (P02942 whole entry): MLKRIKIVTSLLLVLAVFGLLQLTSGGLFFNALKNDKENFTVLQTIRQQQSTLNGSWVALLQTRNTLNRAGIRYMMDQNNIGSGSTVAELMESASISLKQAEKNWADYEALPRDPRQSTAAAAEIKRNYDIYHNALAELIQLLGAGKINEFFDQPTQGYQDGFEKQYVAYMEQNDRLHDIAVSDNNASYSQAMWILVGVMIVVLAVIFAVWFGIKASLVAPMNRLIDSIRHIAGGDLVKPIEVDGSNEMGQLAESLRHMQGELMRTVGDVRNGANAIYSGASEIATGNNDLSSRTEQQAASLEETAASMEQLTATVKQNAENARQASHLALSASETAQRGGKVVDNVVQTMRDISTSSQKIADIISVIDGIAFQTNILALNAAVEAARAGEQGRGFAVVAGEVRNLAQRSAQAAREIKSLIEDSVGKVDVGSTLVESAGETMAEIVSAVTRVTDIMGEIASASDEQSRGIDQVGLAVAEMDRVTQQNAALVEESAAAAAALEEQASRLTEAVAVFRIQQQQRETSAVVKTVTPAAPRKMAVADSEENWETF

`N[C@@H](CO)C(=O)O` [serine]: the EC50 was 400 nM.
